ED50 data for 27 compounds are collected here from patent US4943580A, “Anti-histaminic benzimidazole, imidazopyridine and purine derivatives” (Janssen Pharmaceutica N.V., priority 1989, dated 1990).

The subject of this test is compound 48/80-induced lethality. The experiment in a line: Protection of rats from compound 48/80-induced lethality. Format: in vivo, rat (male, inbred Wistar strain). The settings on record: Rattus norvegicus; rats treated subcutaneously or orally 1 hour before compound 48/80 0.5 mg/kg intravenously; 50% of animals protected; survival after 4 hours; read-out: Compound 48/80 lethality test in rats-ED50. The text has this: Protection of rats from compound […] lethality
Compound 48/80, a mixture of oligomers obtained by condensation of 4-methoxy-N-methylbenzeneethanamine and formaldehyde has been described as a potent histamine releasing agent (Int. Arch. Allergy, 13, 336 (1958)). The protection from compound 48/80-induced lethal circulatory collapse appears to be a simple way of evaluating quantitatively the antihistaminic activity of test compounds. Male rats of an inbred Wistar strain, weighing 240-260 g were used in the experiment. After overnight starvation the rats were transferred to conditioned laboratories (temp.=[…], relative humidity=65±5%). The rats were treated subcutaneously or orally with a test compound or with the solvent (NaCl solution, 0.9%). One hour after treatment there was injected intravenously compound 48/80, freshly dissolved in water, at a dose of 0.5 mg/kg (0.2 ml/100 g of body weight). In control experiments, wherein 250 solvent-treated animals were injected with the standard dose of compound 48/80, not more than 2.8% of the animals survived after 4 hours. Survival after 4 hours is therefore considered to be a safe criterion of a protective effect of drug administration. Said ED50 -values are the values in mg/kg body weight at which the tested compounds protect 50% of the tested animals against compound 48/80-induced lethality.

Regarding `CCOCCn1c(NC2CCN(CCc3ccc(OC)cc3)CC2)nc2cccnc21` [Compound 45], the ED50 worked out at 0.02 mg/kg. On to `CCOCCn1c(NC2CCN(CCc3c(C)nc4ccccn4c3=O)CC2)nc2cccnc21` [Compound 46], for which the ED50 amounted to 0.01 mg/kg. For the compound `CCOCCn1c(CC2CCN(CCc3ccc(OC)cc3)CC2)nc2cccnc21` [Compound 59], the ED50 is 0.02 mg/kg.

On to `CCOCCn1c(NC2CCN(CCCC(C)=O)CC2)nc2cccnc21` [Compound 61], for which the ED50 turned out to be 0.04 mg/kg. Then `CCOCCn1c(CC2CCN(CCc3c(C)nc4ccccn4c3=O)CC2)nc2cccnc21` [Compound 62], with 0.04 mg/kg; and `CCOCCn1c(NC2CCN(CCCOc3ccc(F)cc3)CC2)nc2cccnc21` [Compound 63], with 0.04 mg/kg.

For `CCOCCn1c(NC2CCN(CCc3c(C)nc4sccn4c3=O)CC2)nc2cccnc21` [Compound 64], the ED50 came out at 0.02 mg/kg. For `CCOCCn1c(NC2CCN(CCCC(=O)c3ccc(F)cc3)CC2)nc2cccnc21` [Compound 65], the ED50 was 0.02 mg/kg. Then `CCOCCn1c(NC2CCN(CCc3scnc3C)CC2)nc2cccnc21` [Compound 67], with 0.02 mg/kg. Turning to `CCOCCn1c(NC2CCN(CCn3c(=O)[nH]c4ccccc4c3=O)CC2)nc2cccnc21` [Compound 68], the ED50 was determined as 0.04 mg/kg. Then `CCOCCn1c(NC2CCN(CCc3c(C)nc4n(c3=O)CCCC4)CC2)nc2cccnc21` [Compound 70], with 0.04 mg/kg; and `CCOCCn1c(CC2CCN(CCn3c(=O)[nH]c4ccccc43)CC2)nc2cccnc21` [Compound 80], with 0.02 mg/kg. Then `CCOCCn1c(NC2CCN(CCc3cc4ccccc4oc3=O)CC2)nc2cccnc21` [Compound 82], with 0.04 mg/kg; and `CCOCCn1c(NC2CCN(CCSc3ccccc3)CC2)nc2cccnc21` [Compound 100, 3-(2-ethoxyethyl)-N-[1-[2-(phenylthio)ethyl]-4-piperidinyl]-3H-imidazo [4,5-b]-pyridin-2-amine], with 0.04 mg/kg; and `CCOCCn1c(NC2CCN(C)CC2)nc2cccnc21` [Compound 108, 3-(2-ethoxyethyl)-N-(1-methyl-4-piperidinyl)-3H-imidazo[4,5-b]pyridin-2-amine], with 0.04 mg/kg. The same measure for `CCOCCn1c(NC2CCN(CC)CC2)nc2cccnc21` [Compound 115]: 0.04 mg/kg; for `CCOCCn1c(CC2CCN(C)CC2)nc2cccnc21` [Compound 126]: 0.04 mg/kg. Turning to `CCOCCn1c(CC2CCN(CCNc3ncccn3)CC2)nc2cccnc21` [Compound 131, N-[2-[4-[[3-(2-ethoxyethyl)-3H-imidazo[4,5-b]pyridin-2-yl]methyl]-1-piperidinyl]ethyl]-2-pyrimidinamine], the ED50 came out at 0.02 mg/kg.

Regarding `CCOCCn1c(NC2CCN(CCNc3ncccn3)CC2)nc2cccnc21` [Compound 132, 3-(2-ethoxyethyl)-N-[1-[2-(2-pyrimidinylamino)ethyl]-4-piperidinyl]-3H-imidazo[4,5-b]pyridin-2-amine], the ED50 came to 0.01 mg/kg.

On to `CCOCCn1c(NC2CCN(CCOc3ncccn3)CC2)nc2cccnc21` [Compound 133, 3-(2-ethoxyethyl)-N-[1-[2-(2-pyrimidinyloxy)ethyl]-4-piperidinyl]-3H-imidazo-[4,5-b]pyridin-2-amine], for which the ED50 was found to be 0.02 mg/kg.

As to `CCOCCn1c(CC2CCN(CCOc3ncccn3)CC2)nc2cccnc21` [Compound 134, 3-(2-ethoxyethyl)-2-[[1-[2-(2-pyrimidinyloxy)ethyl]4-piperidinyl]methyl]-3H-imidazo-[4,5-b]pyridine], the ED50 came out at 0.005 mg/kg. Then `CCOCCn1c(NC2CCN(CCNc3nc4cnccc4[nH]3)CC2)nc2cccnc21` [Compound 141, 3-(2-ethoxyethyl)-N-[1-[2-[(1H-imidazo[4,5-c]pyridin-2-yl)amino]ethyl]-4-piperidinyl]-3H-imidazo[4,5-b]pyridin-2-amine], with 0.02 mg/kg; and `CCOCCn1c(NC2CCN(CCNC(=O)c3ccoc3)CC2)nc2cccnc21` [Compound 142, N-[2-[4-[[3-(2-ethoxyethyl)-3H-imidazo[4,5-b]pyridin-2-yl]amino]-1-piperidinyl]ethyl]-3-furancarboxamide], with 0.04 mg/kg. Then `CCOCCn1c(NC2CCN(CCNC(=O)c3cccn3C)CC2)nc2cccnc21` [Compound 143, N-[2-[4-[[3-(2-ethoxyethyl)-3H-imidazo[4,5-b]pyridin-2-yl]amino]-1-piperidinyl]ethyl]-1-methyl-1H-pyrrole-2-carboxamide], with 0.02 mg/kg; and `CCOCCn1c(CC2CCN(CCNC(=O)c3nccs3)CC2)nc2cccnc21` [Compound 144, N-[2-[4-[[3-(2-ethoxyetyyl)-3H-imidazo[4,5-b]pyridin-2-yl]methyl]-1-piperidinyl]ethyl]-2-thiazolecarboxamide], with 0.02 mg/kg; and `CCOCCn1c(NC2CCN(CCc3ccccn3)CC2)nc2cccnc21` [Compound 151, 3-(2-ethoxyethyl)-N-[1-[2-(2-pyridinyl)ethyl]-4-piperidinyl]-3H-imidazo-[4,5-b]pyridin-2-amine], with 0.02 mg/kg. In the case of `CCOCCn1c(CC2CCN(CCc3ccccn3)CC2)nc2cccnc21` [Compound 152, 3-(2-ethoxyethyl)-2-[[1-[2-(2-pyridinyl)ethyl]-4-piperidinyl]methyl]-3H-imidazo-[4,5-b]pyridine], the ED50 turned out to be 0.005 mg/kg.
